Patent US11065296B2, “Antimicrobial peptide, its analog and use” (City University of Hong Kong, priority 2018, dated 2021)
Entries after “also recorded” stand apart in the source; their conditions may differ. Peptide text beside a SMILES is read from it.

Assays:
[1] = test system: panel of Gram-positive and Gram-negative bacteria; assay: Antibacterial activity against a panel of bacteria (summary); assay type: cell-based; conditions: including beta-lactam resistant bacteria
Experimental: The antibacterial activity of the Peptide A against a panel of Gram-positive and Gram-negative bacteria (FIG. 5A, 5B and Table 2) was determined.
(§2) Bacteria were grown in their respective media (Table 2 above) overnight at 37° C. or room temperature with constant shaking and then diluted to 10^6 CFU/ml in their respective medium. Stock solutions of peptides at 0.68 mM were prepared in distilled water. Bacteria and peptide were incubated (50 μl: 50 μl) to make the final peptide concentrations (0.68, 3.4, 6.8, 13.7, 34.1, 68.3, 136.5 μM) in a 96-microtitre plate and incubated for 24 h with constant shaking. […] Absorbance at 600 nm was detected every 3 h up to 24 h to obtain the growth curves. The minimal inhibition concentration (MIC) was defined as the lowest concentration of an antimicrobial agent that could inhibit the growth of bacteria after overnight incubation.

[2] = test system: Gram positive (S. aureus) and negative (E. coli) bacteria; assay: Toxicity screen of synthesized shortlisted SCPs against bacteria; assay type: cell-based; conditions: synthesized peptides
From the text: Of the remaining SCPs, 1519 (24%) satisfy the CAMP prediction algorithm for AMPs as potential AMPs (FIG. 3). In order to increase the accuracy of prediction, the inventors further limited the shortlisted AMPs to amphipathic and cationic peptides, since they account for the majority of currently known AMPs. There are 430 peptides from the SCP database that satisfied these criteria. To assess the accuracy of the AMP prediction, the inventors synthesized 53 of the shortlisted SCPs and tested their toxicity against both Gram positive (S. aureus) and negative (E. coli) bacteria.

Streptococcus Faecalis = assay type: cell-based
Experimental: (§3) MIC denotes the lowest concentration of an antimicrobial agent that can inhibit the growth of bacteria after overnight incubation.
as §2

[3] = test system: Staphylococcus aureus ATCC 6538; assay type: cell-based
Experimental: as §3, §2

[4] = test system: six mammalian cell lines (HeLa, MDA-MB, MC3T3, MCF7, H1299, and AG06858); assay: In vitro toxicity, 48 hour MTT assay; assay type: cell-based, Human; Mouse; conditions: concentrations close to the MIC for gram-negative bacteria
Experimental: (§1) FIG. 11A is a plot showing the effect of Peptide A on viability of cultured mammalian cells, incubated for 48 h in the presence of Peptide A at different concentrations (μg/ml), as determined by MTT assay. Cell viability represented as peptide treated cell numbers over medium-only control. Statistically significant difference as compared to controls (*: p<0.05, **: p<0.01, n=4). FIG. 11B is a plot showing the ability of Peptide A to protect medaka from lethal challenge of E. tarda ([…]). Medaka was injected with 1 μl of Peptide A (0.68 mM), with 1 μl of E. tarda (10^7 CFU/ml) and Peptide A (0.68 mM) mixture, or with E. tarda alone (1 μl of E. tarda:10^7 CFU/ml). […] 20 fish per group. Log-rank (Mantel-Cox) test was applied for the comparison of survival curves (**: p<0.01).
Mammalian cell lines (Hela, MDA MB, MC3T3, MCF7, H1299, and AG06858) were seeded into 96 well-plates one day before treatment at a density of 3×10^5 cells/ml for a 48 hour MTT assay. The peptides were directly dissolved in the medium to make a 136.5 μM stock. […] The resulting solution was measured by using a microplate reader (BMG Polarstar Optima) at a wavelength of 570 nm. The optical density (OD) values were recorded and cell viability was calculated based on the OD readings normalized to the untreated cells.

[5] = test system: Escherichia coli ATCC 10536; assay type: cell-based
Experimental: as §3, §2

Edwardsiella tarda PE210 = assay type: cell-based
Experimental: as §3, §2

[6] = test system: Staphylococcus aureus ATCC 29213; assay type: cell-based
Experimental: as §3, §2

E. tarda = assay: Host resistance assay, Experiment Two: pre-injection 2 h before bacteria; assay type: in vivo, Medaka; conditions: injected 2 h prior to E. tarda
Experimental: as §1
The efficacy of the synthesized AMP to protect medaka against infection was characterized using host resistance assays with intraperitoneal (i.p.) injection of bacteria using a micro-injection machine (PV820 Pneumatic PicoPump). In Experiment One, 80 medaka fish were used and divided into four groups (20 fish in each group, male, 6 months): (1) Group 1 was injected with only 1 μl of PBS in each fish; (2) Group 2 was injected with only 1 μl of novel AMP (0.68 mM) in each fish; (3) Group 3 was injected with 1 μl of bacteria (at a titer of 5×10^7 CFU/ml); and (4) bacteria and novel AMP were mixed for 5 min and then 1 μl of the mixture was injected into Group 4 (Bacteria: 5×10^7 CFU/ml, AMP: 0.68 mM). In Experiment Two, 60 fish were used and divided into three groups: each fish was injected with 1 μl of PBS, ampicillin (5.7 mM) or Peptide A (1.36 mM). The fish were anesthetized in MS222 for 30 s before microinjection. After two hours, 1 μl of bacteria (5×10^7 CFU/ml) was injected into the fish. All of the fishes were kept under a static condition of 26° C.±1° C., with 14:10 hrs of a light-dark cycle. The water was replaced every two days. The fish were fed three times each day. The number of dead fish was counted on a daily basis until two weeks after the injections.

In the case of `CC[C@H](C)[C@H](N)C(=O)N[C@@H](CCCNC(=N)N)C(=O)N[C@H](C(=O)N[C@H](C(=O)N[C@@H](CC(C)C)C(=O)N[C@@H](CCCNC(=N)N)C(=O)N[C@@H](C)C(=O)N[C@@H](CCC(N)=O)C(=O)NCC(=O)N[C@@H](C)C(=O)N[C@@H](CC(C)C)C(=O)N[C@@H](CCCCN)C(=O)N[C@H](C(=O)O)[C@@H](C)CC)[C@@H](C)CC)[C@@H](C)CC` [Peptide A, IRIILRAQGALKI] (H-IRIILRAQGALKI-OH; N-terminus and C-terminus assumed), the “effect on antibiotic resistant strains” value [1] is reported as “effective on a number of antibiotic resistant strains”, the “toxicity / antimicrobial activity against bacteria” value [2] is reported as “demonstrated toxicity against both Gram positive and negative bacteria” and the MICs (Streptococcus Faecalis) is reported as 34.1 µM. The MICs [3] was 13.7 µM, the “cytotoxic effect (cell viability, MTT)” value [4] was “No obvious toxicity; also recorded: relatively nontoxic” and the MICs [5] was 3.4 µM. The MICs (Edwardsiella tarda PE210) was 6.8 µM, the MICs [6] was 64 µM and the initial survival rate (E. tarda; one day post injection, Peptide A 1.37 mM, Ampicillin 5.7 mM, 1 μl) was 85%. For the same molecule, the “effect on E. tarda infection / surviving fish” value (E. tarda; two weeks after infection) was “still higher than the controls”.
